From article PMC9385959, “Mammalian derived lipocalin and secretoglobin respiratory allergens strongly bind ligands with potentially immune modulating properties” (Frontiers in Allergy, 2022) come the findings set out here.

Experiment [1] addresses T1, Fel d 1 (Felis catus, UniProt P30438+P30440).
T1 construct: polyhistidine tag (C); made in house; host or cells: E. coli Rosetta-gami 2
T1 sequence (P30438+P30440 with tags, fused parts or gaps): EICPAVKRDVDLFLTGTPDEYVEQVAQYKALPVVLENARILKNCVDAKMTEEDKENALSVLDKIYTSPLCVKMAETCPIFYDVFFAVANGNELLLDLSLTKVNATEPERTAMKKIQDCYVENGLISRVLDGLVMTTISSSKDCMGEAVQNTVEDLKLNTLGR
In words: Fluorochrome binding to Fel d 1 (emission spectra and titration). On the set-up: species or system cat. The settings on record: for Increase of fluorescence intensity upon binding: 5 μM Fel d 1 with 5 μM fluorochrome. The procedure: (§1) Stock solutions were prepared at a concentration of 10 mM in 100% ethanol for the fluorochromes 1-aminoanthracene (1-AMA), 8-anilino-1-naphthalensulfonic acid (1,8-ANS) and for all ligands, and in 100% methanol for n-phenyl-1-naphthylamine (1-NPN), respectively. Iron catecholate ligands (siderophores) were prepared as previously described ([46]). Fluorochrome-protein complexes were analyzed at an equimolar concentration of 5 μM in PBS with 5% ethanol in a volume of 100 μL per well in black 96-well non-binding microplates (Greiner Bio-One GmbH, Frickenhausen, Germany). Solutions containing only protein or the respective fluorescent probe in PBS with 5% ethanol served as controls. Fluorochrome-protein complexes were incubated with orbital shaking for 10 min at 500 rpm at room temperature (RT) before measurement using the fluorescence reader TECAN Infinite 200 Pro (Tecan Trading AG, Switzerland). Excitation wavelengths were fixed at 380 nm for 1-AMA and 1,8-ANS, and 337 nm for 1-NPN. Fluorescence emission spectra were recorded in 5 nm steps between 420 and 560 nm for 1-AMA and 1,8-ANS and between 380 and 500 nm for 1-NPN. The establishment of fluorescent quenching assay parameters for each allergen is explained in the results Section Fluorescence-quenching assay set up. Binding affinities were analyzed by non-linear regression in GraphPad Prism Version 9.3.1 (GraphPad Software, LLC). For the ligand competition assays, ligands were added to fluorochrome-allergen complexes with a final buffer composition of 5% ethanol in PBS in a volume of 100 μL and incubated for 30 min at 500 rpm at RT and further equilibrated for another 30 min without shaking before fluorescence measurement.
(§2) We established four specific parameters for each allergen to set up a fluorescence quenching assay for screening a large array of potential ligands: (i) a compatible fluorochrome, (ii) the optimal emission wavelength to analyze the fluorescence intensities of the fluorochrome-allergen complex, (iii) the binding affinities of the fluorochrome-allergen complex (Kd values) and (iv) optimal fluorochrome concentrations (EC50 values).
(§3) For each allergen, we identified a suitable fluorescence probe by adding equimolar concentrations of either 1-AMA or 1,8-ANS to the recombinant proteins. […] 1-AMA was chosen for the guinea pig lipocalin Cav p 1 isoallergens, rabbit lipocalin Ory c 2, and rabbit secretoglobin Ory c 3. Fluorescence intensities increased 20–60-fold upon binding. While the emission maxima shifted from 565 to 485 nm for lipocalin fluorochrome-allergen pairs, the blue shift was less pronounced for the Ory c 3 secretoglobin-1-AMA complex to 505 nm (Figure 4B). […] Respective Kd were calculated after background subtraction (Figure 4B). As ethanol gave a high background with 1-NPN, these experiments were carried out with methanol to reduce the signal-to-noise-ratio.
(§4) We evaluated the binding affinities of the fluorochromes to the allergens by dose-dependent titration curves. Increasing fluorochrome concentrations were added to a fixed protein concentration of 5 μM until saturation (Figure 5). Fluorescence intensities were recorded at specific emission maxima for each fluorochrome-allergen complex, determined using the emission spectra shown in Figure 4. We analyzed the specific binding of fluorochrome-allergen complexes by non-linear regression and calculated equilibrium dissociation constants (Kd) and EC50 values (Table 2). EC50 values are equal to fluorochome concentrations in which half of the allergen binding sites are saturated and these concentrations were used in subsequent ligand competition assays. We chose a one-site specific binding model for all allergens, except for human LCN1, where multiple binding site analysis emerged as the model of best fit and two Kd values were calculated. Evidence for internal and external binding sites for 1,8-ANS and LCN1 were already reported ([58]).

In experiment [2] the target is T2, Fel d 4 (Felis catus, UniProt Q5VFH6).
T2 construct: polyhistidine tag (C); made in house; host or cells: E. coli Rosetta-gami 2
T2 sequence (Q5VFH6 16-186): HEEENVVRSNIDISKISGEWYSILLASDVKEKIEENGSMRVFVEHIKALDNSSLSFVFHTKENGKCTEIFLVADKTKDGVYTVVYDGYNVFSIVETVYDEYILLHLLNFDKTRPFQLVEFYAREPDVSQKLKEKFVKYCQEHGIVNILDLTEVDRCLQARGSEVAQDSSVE
In words: Fluorochrome binding to Fel d 4 (emission spectra and titration). The following applies: for Increase of fluorescence intensity upon binding: 5 μM Fel d 4 with 5 μM fluorochrome. On the set-up: species or system cat. The procedure: as §1, §2, §3, §4

Experiment [3] deals with T3, Can f 6 (Canis lupus familiaris, UniProt H2B3G5).
T3 construct: polyhistidine tag (C); made in house; host or cells: E. coli Rosetta-gami 2
T3 sequence (H2B3G5 16-190): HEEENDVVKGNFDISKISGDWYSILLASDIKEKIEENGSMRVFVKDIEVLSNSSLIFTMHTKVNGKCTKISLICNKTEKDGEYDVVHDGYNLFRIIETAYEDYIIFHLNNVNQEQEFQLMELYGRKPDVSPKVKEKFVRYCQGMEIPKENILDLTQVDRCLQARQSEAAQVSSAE
Description: Fluorochrome binding to Can f 6 (emission spectra and titration). The arrangement: species or system dog. The following applies: for Increase of fluorescence intensity upon binding: 5 μM Can f 6 with 5 μM fluorochrome. The procedure:
as §1, §2, §3, §4

The target of experiment [4] is T4, Can f 1 (Canis lupus familiaris, UniProt O18873).
T4 construct: made in house; host or cells: E. coli Rosetta-gami 2(DE3)
T4 sequence (O18873 19-174): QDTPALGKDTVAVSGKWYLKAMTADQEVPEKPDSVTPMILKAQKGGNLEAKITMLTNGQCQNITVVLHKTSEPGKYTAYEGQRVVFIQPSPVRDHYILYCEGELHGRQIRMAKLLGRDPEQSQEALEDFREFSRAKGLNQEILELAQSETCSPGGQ
Description: Fluorochrome binding to Can f 1 (emission spectra and titration). On the set-up: species or system dog. The procedure:
as §1, with “measurement. […]” for “measurement.”
For each allergen, we identified a suitable fluorescence probe by adding equimolar concentrations of either 1-AMA or 1,8-ANS to the recombinant proteins. […] Fluorescence intensities increased 20–60-fold upon binding. […] Respective Kd were calculated after background subtraction (Figure 4B). […]
We evaluated the binding affinities of the fluorochromes to the allergens by dose-dependent titration curves. […]

In experiment [5] the target is T5, human LCN1 (Homo sapiens, UniProt P31025).
T5 construct: made in house; host or cells: E. coli Rosetta-gami 2(DE3)
T5 sequence (P31025 19-176): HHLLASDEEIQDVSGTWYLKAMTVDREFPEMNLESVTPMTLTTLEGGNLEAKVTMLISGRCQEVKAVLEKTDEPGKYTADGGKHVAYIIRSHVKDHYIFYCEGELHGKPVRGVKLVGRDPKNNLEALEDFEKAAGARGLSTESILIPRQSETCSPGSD
Description: Fluorochrome binding to LCN1 (emission spectra and titration). The settings on record: for Kd: multiple binding site analysis. The procedure: as §1, §2
as §3, with “As ethanol gave a high background with 1-NPN, these experiments were carried out with methanol to reduce the signal-to-noise-ratio.” left out
We evaluated the binding affinities of the fluorochromes to the allergens by dose-dependent titration curves. […] Fluorescence intensities were recorded at specific emission maxima for each fluorochrome-allergen complex, determined using the emission spectra shown in Figure 4. We analyzed the specific binding of fluorochrome-allergen complexes by non-linear regression and calculated equilibrium dissociation constants (Kd) and EC50 values (Table 2). […] We chose a one-site specific binding model for all allergens, except for human LCN1, where multiple binding site analysis emerged as the model of best fit and two Kd values were calculated. […]

Experiment [6] concerns the target T4, Can f 1. In words: Competitive fluorescence-quenching assay, Can f 1. Type of experiment: binding, dog. The settings on record: for inhibition at 50 µM: read-out: Mean fluorescence inhibition. The procedure: (§5) Fluorescence quenching assays were performed as previously described ([45]), with modifications. Fluorochromes and ligands were purchased from Sigma Aldrich (Steinheim, Germany), Carl Roth (Karlsruhe, Germany) and TCI Europe N.V. (Zwijndrecht, Belgium).
as §1
(§6) The binding affinities of non-fluorescent ligands is inferred to by their ability to compete and displace the fluorochromes bound to the allergen at a certain concentration. This leads to a measurable decrease in fluorescence intensity that will be expressed as fluorescence inhibition (Figure 6). For a given allergen, the ligand with the strongest inhibition has the highest binding affinity. […] Competitive ligand binding was analyzed by non-linear regression and inhibitory dissociation constants (Ki) were calculated.

For experiment [7], the target named is T5, human LCN1. Description: Competitive fluorescence-quenching assay, LCN1. Type of experiment: binding. The procedure: as §5, §1, §6
Experiment [8] addresses Cav p 1.0101 (Cavia porcellus, UniProt A0A484HM70, S19A). In words: Competitive fluorescence-quenching assay, Cav p 1.0101. The class given is binding, guinea pig. The procedure: as §5, §1, §6
Experiment [9] concerns the target Cav p 1.0201 (Cavia porcellus, UniProt A0A484HRI4). Description: Competitive fluorescence-quenching assay, Cav p 1.0201. Type of experiment: binding, guinea pig. The procedure: as §5, §1, §6
For experiment [10], the target named is Ory c 2. Description: Competitive fluorescence-quenching assay, Ory c 2. The class given is binding, rabbit. The procedure:
as §5, §1, §6

The target of experiment [11] is Ory c 3 (Oryctolagus cuniculus, UniProt Q9GK63+Q9GK67). In words: Competitive fluorescence-quenching assay, Ory c 3. The settings on record: 5 μM Ory c 3-1-AMA complex, 50 μM ligand, n = 2; read-out: Mean fluorescence inhibition. The class given is binding, rabbit. The procedure: as §5, §1, §6
Sequence of Ory c 3 (Q9GK67 entry or part of it): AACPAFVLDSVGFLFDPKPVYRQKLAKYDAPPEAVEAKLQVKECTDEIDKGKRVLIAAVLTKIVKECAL
Sequence of Ory c 3 (Q9GK63 entry or part of it): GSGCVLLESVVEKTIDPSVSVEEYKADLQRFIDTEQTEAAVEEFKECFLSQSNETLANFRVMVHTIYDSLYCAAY
The target of experiment [12] is T1, Fel d 1. In words: Competitive fluorescence-quenching assay, Fel d 1. The following applies: 5 μM Fel d 1 + 1,8-ANS complex, 100 μM ligand; read-out: Mean fluorescence inhibition. The class given is binding, cat. The procedure:
as §5, §1, §6

[13] abbreviates: 5 μM Can f 1-1,8-ANS complex, 50 μM ligand, n = 2.
[14] abbreviates: 5 μM LCN1-1,8-ANS complex, 50 μM ligand, n = 2.

Where “and” joins values, the source holds several entries; their conditions need not be identical. Identical values can stand only once. Like-named read-outs stand apart in the source and are kept apart here.

Sequence of Cav p 1.0101 (A0A484HM70 entry or part of it S19A): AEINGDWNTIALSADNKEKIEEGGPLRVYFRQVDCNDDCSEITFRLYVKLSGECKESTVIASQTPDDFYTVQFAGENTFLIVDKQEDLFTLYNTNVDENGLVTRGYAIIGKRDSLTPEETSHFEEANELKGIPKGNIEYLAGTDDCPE
Sequence of Cav p 1.0201 (A0A484HRI4 entry or part of it): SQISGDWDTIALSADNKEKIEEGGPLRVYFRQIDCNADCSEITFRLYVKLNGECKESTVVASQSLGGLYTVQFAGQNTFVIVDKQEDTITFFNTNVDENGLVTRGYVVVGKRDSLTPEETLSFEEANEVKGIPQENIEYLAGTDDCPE

On to `c1ccc(Nc2cccc3ccccc23)cc1` [1-NPN, n-phenyl-1-naphthylamine], for which the EC50 in experiment [1] came out at 21.1 µM; in [2] (5 μM Fel d 4, read-out: EC50 fluorochrome concentration) it was 28 µM; in experiment [3] (5 μM Can f 6, read-out: EC50 fluorochrome concentration), 20.7 µM. Also, the Kd was found to be 35.5 µM in experiment [1]; 81.7 µM in [2] (5 μM Fel d 4, one-site specific binding, read-out: Fluorochrome dissociation constant Kd); 59.9 µM in experiment [3] (5 μM Can f 6, Figure 5C, read-out: Kd, one-site fit model of total and non-specific binding); 34.9 µM in [3] (5 μM Can f 6, one-site specific binding, read-out: Fluorochrome dissociation constant Kd). The “Increase of fluorescence intensity upon binding” value (shortened to “Increase”) in experiment [1], in [2] and in experiment [3] was 2–3 fold in each case.
For the compound `O=S(=O)(O)c1cccc2cccc(Nc3ccccc3)c12` [1,8-ANS, 8-anilino-1-naphthalensulfonic acid], the EC50 stood at 6.4 µM in experiment [4] (5 μM Can f 1, half of the allergen binding sites saturated, read-out: EC50 fluorochrome concentration); 7.1 µM in [5] (5 μM LCN1, read-out: EC50 fluorochrome concentration); 99.8 µM in experiment [1] (5 μM Fel d 1, read-out: EC50 fluorochrome concentration). For the same compound, the Kd in experiment [4] (5 μM Can f 1, one-site specific binding, read-out: Fluorochrome dissociation constant Kd) came to 6.8 µM; in experiment [5] (5 μM LCN1, first binding site, read-out: Fluorochrome dissociation constant Kd), 5 µM; in [5] (5 μM LCN1, second binding site, read-out: Fluorochrome dissociation constant Kd, second binding site), 64.7 µM; in experiment [1] (5 μM Fel d 1, one-site specific binding, read-out: Fluorochrome dissociation constant Kd), 149 µM. The “Increase” value in experiment [4] (5 μM Can f 1 with 5 μM fluorochrome) is reported as greater than 100 fold; in experiment [5] (5 μM LCN1 with 5 μM fluorochrome), greater than 100 fold; in experiment [1], 8 fold; in experiment [2], “neither reacted”; in experiment [3] it was “neither reacted”. For the same compound, the “Kd at the second binding site relative to the first (higher Kd)” value in experiment [5] (LCN1) is recorded as 13 fold.
Take `CN(C)c1cccc2c(S(=O)(=O)NCCCCCCCCCCC(=O)O)cccc12` [DAUDA, 11-(Dansylamino)undecanoic acid]: the “Increase” value in [2] and in experiment [3] was “neither reacted” in each case.
Turning to Lipopolysaccharide, the Mean fluorescence inhibition in [6] (setting [13]) is 57.4%; in [7] (setting [14]), 81% and 81.2%.
The term inhibition denotes how much of the control response was suppressed. The term Ki denotes the dissociation constant of the complex between target and ligand, obtained from inhibition or displacement. `CC(C)=CCC/C(C)=C/CC/C(C)=C/CO` [Farnesol, farnesol]: the inhibition at 50 µM in experiment [6] (setting [13]) was 43.1%; in experiment [7] (setting [14]), 90.9%; in experiment [8] (5 μM Cav p 1.0101-1-AMA complex, 50 μM ligand, n = 2), 98.9%; in experiment [9] (5 μM Cav p 1.0201-1-AMA complex, 50 μM ligand, n = 2), 95.5%; in [11] it was 91.3%. Also, the Ki was found to be 580 nM in experiment [8] (Ki (printed in Figure 6D), Cav p 1.0101, titration 0–60 μM ligand, unit inferred); 600 nM in experiment [8] (Ligand inhibition constant Ki, 5 μM Cav p 1.0101, fluorochrome 1-AMA); 600 nM in experiment [9] (5 μM Cav p 1.0201, fluorochrome 1-AMA, read-out: Ligand inhibition constant Ki); 1100 nM in [10] (5 μM Ory c 2, fluorochrome 1-AMA, read-out: Ligand inhibition constant Ki). In experiment [10] (5 μM Ory c 2-1-AMA complex, 50 μM ligand, n = 2), the Mean fluorescence inhibition is on record as 96.0%. The inhibition at 100 µM in experiment [12] was 11.2%.
Take `CCCCCCCCCCCCCC(=O)O` [Tetradecanoic acid, tetradecanoic acid]: the inhibition constant Ki in [6] (5 μM Can f 1, fluorochrome 1,8-ANS, read-out: Ligand inhibition constant Ki) worked out at 7.4 µM; in experiment [7] (5 μM LCN1, fluorochrome 1,8-ANS, read-out: Ligand inhibition constant Ki) it was 1800 nM. For the same compound, the inhibition at 50 µM was 60.8% in [6] and 91.9% in experiment [7] (setting [14]).
Take `CCCCCCCCCCCCCCC(=O)O` [Pentadecanoic acid, pentadecanoic acid]: the inhibition at 50 µM in experiment [6] was 41.4%; in experiment [7] (setting [14]), 88.7%.
